Results: patent US6818767B2, “Quinoline derivatives” (Hoffmann-La Roche Inc., priority 2001, dated 2004)

Molecular target: T1, mouse NPY5-receptor (mNPY5) (Mus musculus, UniProt O70342)
T1 construct: The full-length cDNA encoding the mouse NPY5 (mNPY5) receptor was amplified from mouse brain cDNA; expressed in transfected cells; membrane preparation
T1 sequence (O70342 1-466): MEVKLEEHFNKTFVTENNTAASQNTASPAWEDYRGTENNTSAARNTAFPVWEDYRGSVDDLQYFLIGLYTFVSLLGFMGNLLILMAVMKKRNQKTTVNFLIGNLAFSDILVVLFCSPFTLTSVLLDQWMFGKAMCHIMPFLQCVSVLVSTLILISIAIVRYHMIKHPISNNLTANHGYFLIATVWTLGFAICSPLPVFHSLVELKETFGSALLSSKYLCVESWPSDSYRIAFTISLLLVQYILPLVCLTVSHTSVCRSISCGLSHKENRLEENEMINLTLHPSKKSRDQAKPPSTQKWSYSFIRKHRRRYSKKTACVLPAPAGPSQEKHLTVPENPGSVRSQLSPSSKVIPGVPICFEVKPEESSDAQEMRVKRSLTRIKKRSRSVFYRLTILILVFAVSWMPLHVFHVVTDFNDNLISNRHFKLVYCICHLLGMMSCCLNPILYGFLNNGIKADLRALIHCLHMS
Test: Radioligand competition binding
Details: displacement of 100 pM [125I]labelled peptide YY, membranes of HEK293 cells expressing recombinant mNPY5, 1 h at 22° C.; read-out: NPY5-R (mouse) IC50
From the text: The full-length cDNA encoding the mouse NPY5 (mNPY5) receptor was amplified from mouse brain cDNA using specific primers, designed based on the published sequence, and Pfu DNA-Polymerase (Stratagene). The amplification product was subcloned into the mammalian expression vector pcDNA3 using Eco RI and XhoI restriction sites. Positive clones were sequenced and one clone, encoding the published sequence was selected for generation of stable cell clones.
Human embryonic kidney 293 (HEK293) cells were transfected with 10 μg mNPY5 DNA using the lipofectamine reagent (Gibco BRL) according to the manufacturer's instruction. Two days after transfection, geneticin selection (1 mg/ml) was initiated and several stable clones were isolated. One clone was further used for pharmacological characterization.
Human embryonic kidney 293 cells (HEK293), expressing recombinant mouse NPY5-receptor (mNPY5) were broken by three freeze/thawing cycles in hypotonic Tris buffer (5 mM, pH 7.4, 1 mM MgCl2), homogenized and centrifuged at 72,000×g for 15 min. The pellet was washed twice with 75 mM Tris buffer, pH 7.4, containing 25 mM MgCl2 and 250 mM sucrose, 0.1 mM phenylmethylsulfonylfluoride and 0.1 mM 1,10-pheneanthrolin, resuspended in the same buffer and stored in aliquots at −80° C. Protein was determined according to the method of Lowry using bovine serum albumine (BSA) as a standard. […]

Row | IC50 [nM] | SMILES
1 | 27 | Cc1cc(N2CCCC2)c2ccc(OCC3CC3)cc2n1 [Example 5, 7-cyclopropylmethoxy-2-methyl-4-pyrrolidin-1-yl-quinoline]
2 | 9.9 | CCCCc1cc2c(N3CCCC3)ccnc2cc1O [Example 34, 6-butyl-4-pyrrolidin-1-yl-quinolin-7-ol]
